Results taken from PubChem BioAssay (NCI).
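Grown in 96-well plates, cells were treated for 48 hours with each compound at five concentrations. Insufficient inhibition: endpoint recorded as highest concentration tested. TGI: total growth inhibition.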

Tests used:
Experiment in all cases: NCI tumour cell line growth inhibition, 48 h
SN12C renal = system: SN12C renal
COLO 205 colon = system: COLO 205 colon
EKVX NSCLC = system: EKVX NSCLC
DMS 114 small cell lung = system: DMS 114 small cell lung
TK-10 renal = system: TK-10 renal
SK-MEL-28 melanoma = system: SK-MEL-28 melanoma
OVCAR-8 ovarian = system: OVCAR-8 ovarian
HCT-116 colon = system: HCT-116 colon
UO-31 renal = system: UO-31 renal
SF-539 CNS = system: SF-539 CNS
HCC-2998 colon = system: HCC-2998 colon
786-0 renal = system: 786-0 renal
SNB-19 CNS = system: SNB-19 CNS
NCI-H226 lung = system: NCI-H226 lung
SK-MEL-5 melanoma = system: SK-MEL-5 melanoma
HOP-92 NSCLC = system: HOP-92 NSCLC
A549 NSCLC = system: A549 NSCLC
SF-295 CNS = system: SF-295 CNS
HOP-18 NSCLC = system: HOP-18 NSCLC
K-562 leukemia = system: K-562 leukemia
SF-268 CNS = system: SF-268 CNS
U251 CNS = system: U251 CNS
UACC-62 melanoma = system: UACC-62 melanoma
NCI-H23 lung = system: NCI-H23 lung
RXF 393 renal = system: RXF 393 renal
MOLT-4 leukemia = system: MOLT-4 leukemia
KM12 colon = system: KM12 colon
SNB-78 CNS = system: SNB-78 CNS
SK-MEL-2 melanoma = system: SK-MEL-2 melanoma
DMS 273 small cell lung = system: DMS 273 small cell lung
HL-60(TB) leukemia = system: HL-60(TB) leukemia
SNB-75 CNS = system: SNB-75 CNS
IGROV1 ovarian = system: IGROV1 ovarian
OVCAR-5 ovarian = system: OVCAR-5 ovarian
SW-620 colon = system: SW-620 colon
ACHN renal = system: ACHN renal
SR leukemia = system: SR leukemia
M19-MEL melanoma = system: M19-MEL melanoma
MALME-3M melanoma = system: MALME-3M melanoma
HT29 colon = system: HT29 colon
RXF-631 renal = system: RXF-631 renal
SK-OV-3 ovarian = system: SK-OV-3 ovarian
UACC-257 melanoma = system: UACC-257 melanoma
DLD-1 colon = system: DLD-1 colon
A498 renal = system: A498 renal
RPMI-8226 leukemia = system: RPMI-8226 leukemia
LXFL 529 NSCLC = system: LXFL 529 NSCLC
CCRF-CEM leukemia = system: CCRF-CEM leukemia
CAKI-1 renal = system: CAKI-1 renal
HOP-62 NSCLC = system: HOP-62 NSCLC
HCT-15 colon = system: HCT-15 colon
OVCAR-3 ovarian = system: OVCAR-3 ovarian
KM20L2 colon = system: KM20L2 colon
NCI-H460 lung = system: NCI-H460 lung
LOX IMVI melanoma = system: LOX IMVI melanoma
NCI-H522 lung = system: NCI-H522 lung
XF 498 CNS = system: XF 498 CNS
OVCAR-4 ovarian = system: OVCAR-4 ovarian
M14 melanoma = system: M14 melanoma

Measured: TGI

FC(F)(F)c1ccc(C2SCc3nc4ccccc4n32)cc1 (configuration not stated)
48.8 µM: HOP-92 NSCLC
96.2 µM: HL-60(TB) leukemia
not listed: CAKI-1 renal | HOP-62 NSCLC | HCT-15 colon | OVCAR-3 ovarian | KM20L2 colon | NCI-H460 lung | LOX IMVI melanoma | NCI-H522 lung | XF 498 CNS | OVCAR-4 ovarian | M14 melanoma
> 100 µM: all other assays above

O=C1NC2(CCCCC2)C2CCCCC(O)C12 (configuration not stated)
not listed: SK-MEL-5 melanoma | HOP-92 NSCLC | HOP-18 NSCLC | SK-OV-3 ovarian | LOX IMVI melanoma | NCI-H522 lung | XF 498 CNS | OVCAR-4 ovarian | M14 melanoma
> 100 µM: all other assays above

CC(=O)OC1COC(n2c(=S)n(-c3ccc(C)cc3)c(=O)c3ccccc32)C(OC(C)=O)C1OC(C)=O (configuration not stated)
not listed: TK-10 renal | K-562 leukemia | HL-60(TB) leukemia | SR leukemia | CCRF-CEM leukemia
> 100 µM: all other assays above

NC(CCc1nc(-c2ccc(Cl)cc2)cs1)C(=O)O (configuration not stated)
not listed: DMS 114 small cell lung | SF-539 CNS | K-562 leukemia | XF 498 CNS
> 100 µM: all other assays above
